The text below walks through data of US20200045969A1, “Fungicidal Composition and Fungicide for Controlling Asparagus Stem Blight” (Institute of Plant Protection, Jiangxi Academy of …, priority 2018, published 2020).

The assay concerns Phomopsis asparagi (Sacc.). Put plainly: laboratory toxicity, mycelium growth rate method. Type of assay: cell-based. The conditions noted are these: for ATI (actually-determined toxicity index): (EC50 of standard agent/EC50 of agent to be tested)×100, difenoconazole = 100; for EC50: Phomopsis asparagi, pathogenic fungi of asparagus stem blight collected from the field. The method, then:
According to Sun Yunpei method, the synergistic effect of the mixed drug was evaluated based on a cotoxicity coefficient (CTC). […] The subjects to be tested were pathogenic fungi of asparagus stem blight collected from the field. The determination method was conducted with reference to the mycelium growth rate method in “Technical regulation on agricultural construction project acceptance NY/T 1156.6-2006 of the People's Republic of China”.

As to `CC1COC(Cn2cncn2)(c2ccc(Oc3ccc(Cl)cc3)cc2Cl)O1` (stereo not shown) [difenoconazole], the “ATI (actually-determined toxicity index)” value is listed as 100.00 and the EC50 (as a rule, the concentration needed to bring the measured effect to its halfway point) is 0.088 µg/mL.

Turning to `N=C(N)c1ccc(OCCCOc2ccc(C(=N)N)cc2)cc1` [propamidine], the “ATI (actually-determined toxicity index)” value turned out to be 166.04 and the EC50 is 0.053 µg/mL.
